Holding throughout (test): NCI anticancer screen, dose series, 48 h
The test system of assay [1] is IGROV-1.
Assay [2] relates to MDA-N.
Assay [3] relates to OVCAR-3.
The test system of assay [4] is UACC-257.
For assay [5], the system named is 786-0.
For assay [6], the system named is NCI-H226.
Assay [7] has as its system LOX IMVI.
In assay [8] the test system is DU-145.
The test system of assay [9] is SF-295.
Assay [10] has as its system U-251.
The test system of assay [11] is MDA-MB-435.
Assay [12] deals with SF-268.
The test system of assay [13] is NCI/ADR-RES.
In assay [14] the test system is HCT-15.
Assay [15] relates to HOP-92.
Assay [16] relates to COLO 205.
For assay [17], the system named is HL-60.
For assay [18], the system named is EKVX.
For assay [19], the system named is A549.
Assay [20] concerns HCC 2998.

Molecules are shown by their SMILES.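 Protocol summary: plate cells (96-well), add compound at 5 concentrations, incubate 48 h, interpolate endpoints linearly. Here, GI50 denotes the concentration required for 50% inhibition of growth.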 Activity calls are given as the source filed them. No stated cut-off is given here; in the data, active = GI50 up to about 1.1 µM and inactive = higher.

For `O=C(Nc1nc2ncn(CCOC(=O)c3ccccc3)c2c(=O)[nH]1)c1ccccc1`, the GI50 in assay [1] is 21 µM (inactive); in assay [2], 2.54 µM (inactive); in assay [3], 29.5 µM (inactive); in [4] it was > 95.7 µM (inactive); in assay [5] it was 15.8 µM (inactive); in assay [6], 28.4 µM (inactive). Besides, the GI50 is 5.92 µM (inactive) in assay [7]; 31.8 µM (inactive) in assay [8]; 12.9 µM (inactive) in assay [9]; 7.24 µM (inactive) in assay [10]; 2.48 µM (inactive) in assay [11]; 26.2 µM (inactive) in [12]. In addition, the GI50 in assay [13] is 66.2 µM (inactive); in assay [14], 4.7 µM; in assay [15] it was 25.6 µM (inactive); in [16], 8.47 µM (inactive); in assay [17] it was 2.59 µM (inactive); in assay [18], > 84.3 µM (inactive). Also, the GI50 in assay [19] is 8.09 µM (inactive); in [20], 97.9 µM (inactive).

Consider `N#C/C(=C\c1c[nH]c2ccccc12)C(=O)c1ccc(O)c(O)c1`, for which the GI50 was 24.6 µM (inactive) in assay [1]; 47.1 µM (inactive) in assay [2]; 3.33 µM (inactive) in assay [3]; 50.7 µM (inactive) in [4]; 22.8 µM (inactive) in assay [5]; 47.4 µM (inactive) in assay [6]. Moreover, the GI50 in assay [7] was 23.7 µM (inactive); in [8], 27.4 µM (inactive); in assay [9] it was 14.6 µM (inactive); in assay [10] it was 20.4 µM (inactive); in assay [11], 20.8 µM (inactive); in assay [12] it was 39.7 µM (inactive). The GI50 in [13] was 20.5 µM (inactive); in assay [14], 22.9 µM; in [15], 32.1 µM (inactive); in assay [16], 32.7 µM (inactive); in [17] it was 13.2 µM (inactive); in assay [18] it was 34.8 µM (inactive). Moreover, the GI50 in [19] was 26.1 µM (inactive); in assay [20], 32.5 µM (inactive).

As to `O=C(O)CCCCC1CCSS1` (stereo not drawn) [LIPOIC ACID, ALPHA], the GI50 in [1], in [2], in assay [3], in assay [4], in assay [5] and in [6] was > 100 µM (inactive) in each case. Moreover, the GI50 in assay [7], in [8], in assay [9], in assay [10], in [11] and in assay [12] was > 100 µM (inactive) throughout. Also, the GI50 was > 100 µM (inactive) in assay [13]; more than 100 µM in assay [14]; 30 µM (inactive) in assay [15]; > 100 µM (inactive) in assay [16]; 34.3 µM (inactive) in assay [17]; > 100 µM (inactive) in assay [18]. Also, the GI50 in [19] was > 100 µM (inactive); in [20], 72.6 µM (inactive).

Turning to `COc1ccc(OC)c(N2C(=O)CSC2c2cc(OC)c(OC)c(OC)c2)c1` (stereo not given), the GI50 in assay [1] was > 100 µM (inactive); in [2], 33.4 µM (inactive); in assay [3], > 100 µM (inactive); in assay [4], 89.5 µM (inactive); in assay [5], > 100 µM (inactive); in assay [6], > 100 µM (inactive). Besides, the GI50 is > 100 µM (inactive) in assay [7]; > 100 µM (inactive) in assay [8]; > 100 µM (inactive) in [9]; > 100 µM (inactive) in [10]; 29.8 µM (inactive) in assay [11]; > 100 µM (inactive) in assay [12]. Also, the GI50 in assay [13] was > 100 µM (inactive); in [14], 98.4 µM; in assay [15], > 100 µM (inactive); in [16], > 100 µM (inactive); in [17] it was > 100 µM (inactive); in assay [18] it was > 100 µM (inactive). The GI50 in assay [19] and in assay [20] was > 100 µM (inactive) each time.

Regarding `Cc1cc(NC(=O)NC(=O)c2ccccc2N(C)C)ccc1Oc1ncc(Br)cn1`, the GI50 was 1.46 µM (inactive) in [1]; 0.0302 µM (active) in [2]; 0.29 µM (active) in assay [3]; 0.41 µM (active) in assay [4]; 0.425 µM (active) in assay [5]; 9.27 µM (inactive) in [6]. In addition, the GI50 was 0.369 µM (active) in assay [7]; 1.06 µM (active) in assay [8]; 0.224 µM (active) in [9]; 0.497 µM (active) in assay [10]; 0.0424 µM (active) in assay [11]; 0.977 µM (active) in assay [12]. The GI50 in assay [13] is 0.361 µM (active); in assay [14], 0.202 µM; in assay [15] it was 1.3 µM (inactive); in assay [16], 0.78 µM (active); in assay [17], 0.073 µM (active); in [18], 1.96 µM (inactive). Further, the GI50 in assay [19] was 0.705 µM (active); in [20], 0.53 µM (active).

As for `C=CCOc1ccc(C(=N/NC(=O)c2ccccc2)/N=N/c2ccccc2)cc1OC`, the GI50 in assay [1] was > 100 µM (inactive); in assay [2], > 100 µM (inactive); in [3], 86.9 µM (inactive); in assay [4] it was > 100 µM (inactive); in [5], > 100 µM (inactive); in assay [6] it was 60.5 µM (inactive). Further, the GI50 in assay [7] is 42.1 µM (inactive); in [8] it was > 100 µM (inactive); in assay [9], > 100 µM (inactive); in [10] it was 79.4 µM (inactive); in [11], > 100 µM (inactive); in assay [12], > 100 µM (inactive). The GI50 in assay [13] was 84.3 µM (inactive); in [14], 63.8 µM; in assay [15], 30.1 µM (inactive); in assay [16], 55 µM (inactive); in assay [17] it was 37.8 µM (inactive); in [18], > 100 µM (inactive). Also, the GI50 in [19] is > 100 µM (inactive); in [20], 37.5 µM (inactive).

Take `COc1cc2c(cc1OCCCC(=O)Nc1cc(C(=O)Nc3cc(C(=O)Nc4cc(C(=O)NCCCN(C)C)n(C)c4)n(C)c3)n(C)c1)N=C[C@@H]1CCCN1C2=O`: the GI50 in assay [1] is 3.1 µM (inactive); in assay [2], 1.84 µM (inactive); in [3], 2.02 µM (inactive); in [4] it was 1.97 µM (inactive); in [5] it was 1.12 µM (active); in assay [6] it was 5.56 µM (inactive). For the same compound, the GI50 is 0.933 µM (active) in [7]; 3.47 µM (inactive) in assay [8]; 12.2 µM (inactive) in assay [9]; 1.6 µM (inactive) in assay [10]; 1.79 µM (inactive) in assay [11]; 1.63 µM (inactive) in assay [12]. Moreover, the GI50 is 2.22 µM (inactive) in [13]; 1.82 µM in assay [14]; 1.88 µM (inactive) in [15]; 1.61 µM (inactive) in [16]; 1.16 µM (inactive) in assay [17]; 2.89 µM (inactive) in [18]. For the same compound, the GI50 in assay [19] was 11.2 µM (inactive); in [20], 14.2 µM (inactive).
